Measured values as given in the supplement of paper PMC10307832.

What was measured:
Experiment in all cases: relative viability (nuclei count vs DMSO), 5 days (fraction); higher = more cells survive
Shikonin + Palbociclib = compound: CC(C)=CC[C@@H](O)C1=CC(=O)c2c(O)ccc(O)c2C1=O [Shikonin] + CC(=O)c1c(C)c2cnc(Nc3ccc(N4CCNCC4)cn3)nc2n(C2CCCC2)c1=O [Palbociclib] (partner 0.5 µM)
How it was run: (§1)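 Lung cancer cell lines in 1536-well plates were dosed by pin tool the day after seeding, either with one drug alone or with a fixed anchor-drug dose plus five library-drug doses (not always all listed) in √10 steps. After 5 days, cells were fixed and their nuclei stained in one step (final 0.05% Triton X-100, 1% formaldehyde, 1 ug/ml Hoechst), then counted on 4× images. Relative viability is the nuclei count in treated wells divided by that in vehicle wells. Values are medians of duplicate plates.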

Shikonin + Luminespib = compound: CC(C)=CC[C@@H](O)C1=CC(=O)c2c(O)ccc(O)c2C1=O [Shikonin] + CCNC(=O)c1noc(-c2cc(C(C)C)c(O)cc2O)c1-c1ccc(CN2CCOCC2)cc1 [Luminespib] (partner 0.01 µM)
How it was run: as §1

Shikonin + AZD7762 = compound: CC(C)=CC[C@@H](O)C1=CC(=O)c2c(O)ccc(O)c2C1=O [Shikonin] + NC(=O)Nc1cc(-c2cccc(F)c2)sc1C(=O)N[C@H]1CCCNC1 [AZD7762] (partner 0.2 µM)
How it was run: as §1

[1] = compound: CC(C)N(CCCNC(=O)Nc1ccc(C(C)(C)C)cc1)C[C@H]1O[C@@H](n2ccc3c(N)ncnc32)[C@H](O)[C@@H]1O + CC(=O)c1c(C)c2cnc(Nc3ccc(N4CCNCC4)cn3)nc2n(C2CCCC2)c1=O [Palbociclib] (partner 0.5 µM)
How it was run: as §1

Cell Line	relative viability (Shikonin + Palbociclib; first compound 0.01 µM)	relative viability (Shikonin + Palbociclib; first compound 0.1 µM)	relative viability (Shikonin + Palbociclib; first compound 0.3162 µM)	relative viability (Shikonin + Palbociclib; first compound 1 µM)	relative viability (Shikonin + Luminespib; first compound 0.01 µM)	relative viability (Shikonin + Luminespib; first compound 0.1 µM)	relative viability (Shikonin + Luminespib; first compound 0.3162 µM)	relative viability (Shikonin + Luminespib; first compound 1 µM)	relative viability (Shikonin + AZD7762; first compound 0.01 µM)	relative viability (Shikonin + AZD7762; first compound 0.1 µM)	relative viability (Shikonin + AZD7762; first compound 0.3162 µM)	relative viability (Shikonin + AZD7762; first compound 1 µM)	relative viability ([1]; first compound 0.08 µM)	relative viability ([1]; first compound 0.253 µM)	relative viability ([1]; first compound 0.8 µM)	relative viability ([1]; first compound 2.53 µM)	relative viability ([1]; first compound 8 µM)
HCC-44	0.979	0.991	0.984	1	0.814	1.14	1.28	1.23	1.03	1.01	1.05	1.04	0.968	1.05	0.845	0.931	0.91
HCC-827	0.48	0.517	0.518	0.493	0.518	0.887	0.638	0.64	0.203	0.216	0.2	0.197	0.22	0.468	0.32	0.477	0.5
NCI-H1623	–	–	–	–	0.513	0.552	0.609	0.368	–	–	–	–	–	–	–	–	–
NCI-H2405	0.527	0.569	0.558	0.509	0.698	0.745	0.665	0.644	0.794	0.986	0.716	0.77	0.515	0.539	0.532	0.546	0.507
RERF-LC-KJ	1.09	1.13	1.1	1.08	1.2	1.29	1.2	1.11	1.04	0.788	1.26	1.02	1.01	1.07	1.18	1.17	1.07
NCI-H1651	0.553	0.522	0.544	0.523	0.914	0.821	0.714	0.984	0.487	0.517	0.536	0.44	0.497	0.485	0.49	0.515	0.518
HARA	0.262	0.285	0.248	0.248	0.864	0.841	0.775	0.936	0.259	0.348	0.271	0.368	0.249	0.223	0.311	0.208	0.26
NCI-H1650	0.395	0.448	0.247	0.319	0.195	0.198	0.175	0.193	–	–	–	–	0.38	0.431	0.131	0.335	0.396
NCI-H1395	0.524	0.664	0.596	0.628	0.672	0.793	0.744	0.655	0.375	0.409	0.366	0.448	0.587	0.59	0.651	0.626	0.625
NCI-H520	0.191	0.206	0.229	0.208	0.253	0.216	0.21	0.207	–	–	–	–	0.237	0.196	0.191	0.226	0.25
LU99A	0.457	0.486	0.348	0.38	0.165	0.242	0.268	0.177	0.381	0.334	0.687	0.323	0.399	0.387	0.436	0.427	0.405
NCI-H1355	0.421	0.419	0.383	0.398	0.724	0.795	0.79	0.714	0.739	0.898	0.825	0.787	0.379	0.427	0.363	0.386	0.392
HCC-78	0.459	0.481	0.461	0.413	–	–	–	–	0.647	0.74	0.534	0.694	0.391	0.484	0.502	0.458	0.476
NCI-H1563	–	–	–	–	0.575	0.465	0.542	0.453	–	–	–	–	–	–	–	–	–
HCC-15	0.781	0.676	0.817	0.724	0.358	0.888	0.242	0.402	1.33	1.18	1.34	1.24	0.759	0.709	0.802	0.712	0.724
EKVX	0.404	0.389	0.413	0.366	0.907	0.892	0.915	0.922	0.744	0.698	0.851	0.703	0.418	0.346	0.41	0.433	0.371
NCI-H2126	0.362	0.408	0.379	0.349	1.01	1.05	0.966	0.891	1.03	1.01	1.11	1.08	0.358	0.366	0.355	0.378	0.371
LK-2	0.772	0.869	0.773	0.664	0.195	0.185	0.211	0.17	0.368	0.428	0.424	0.231	–	0.665	0.845	0.775	0.622
NCI-H1437	0.328	0.309	0.268	0.303	1.17	1.18	1.1	1.1	1.12	1.1	1.15	1.11	0.299	0.289	0.288	0.275	0.307
COR-L23	0.26	0.299	0.306	0.29	0.848	0.675	0.767	0.357	–	–	–	–	0.302	0.296	0.265	0.34	0.304
ABC-1	0.904	0.592	0.892	0.586	0.713	0.753	0.4	0.17	–	1.13	0.644	0.741	0.665	0.868	–	0.763	0.655
